Reference: patent US7947661B2, “Compounds for the treatment of marihuana dependence, withdrawal, and usage” (priority 2004, dated 2011)

Key:
[1] = cited from earlier work
[2] = cited from earlier work; remark: listed apart in the source
[3] = test system: cocaine-dependent subjects; assay: Weekly marihuana use from daily diaries, citicoline vs placebo for 8 weeks; format: in vivo, human; conditions: citicoline treatment weeks 3-10, not dependent on cannabis
Procedure: FIG. 1 is a graph of a time course of weekly marihuana use in citicoline- and placebo-treated cocaine-dependent subjects. Subjects were treated with either citicoline or placebo for 8 weeks and then asked to keep track of their drug use patterns via a daily diary. Follow up weeks were conducted under a no drug condition.
Compared to placebo treatment, marihuana use was reduced during citicoline treatment (weeks 3-10) as reported using the daily diaries. […] There is a group difference at baseline; this difference occurred because subjects were not matched for marihuana use in this study, and these subjects were not dependent on cannabis.

cocaine dependent person = assay: Wrist accelerometer (ActiWatch) sleep wake activity and marihuana cigarettes in a representative subject; format: in vivo, human; conditions: 500 mg twice daily citicoline, days 10-14 vs baseline
Procedure: FIG. 2 is a graph of activity of a representative cocaine dependent person two weeks prior to (Baseline) and two weeks after (Citicoline) treatment with citicoline. […] Marihuana cigarettes are depicted by the arrows. Each strip recording is a 24 hour period of consecutive days. Activity was determined by use of an accelerometer worn on the subject'[…] Score). Data in FIG. 2 also show a decrease in the number of marihuana cigarettes smoked and a more normalized, diurnal sleep pattern after treatment with citicoline. Subjects were given either placebo or 500 mg, twice daily of citicoline. […] The subject's binge use of marihuana (arrows on second day) is clearly defined. The bottom 4 tracings of FIG. 2 show the same subject on days 10-14 of citicoline treatment. […] This pattern continued throughout the 8 weeks of treatment for this subject.

[4] = cited from earlier work; remark: listed apart in the source

For `CN(CC(=O)O)C(=N)N` [Creatine, creatine], the tolerability in humans [1] is listed as “well tolerated at relatively high doses”.

For `CC(=O)OC[C@H]1O[C@@H](n2ccc(=O)[nH]c2=O)[C@H](OC(C)=O)[C@@H]1OC(C)=O` [triacetyl uridine], the tolerability in mammals [1] is listed as “well tolerated”.

In the case of `O=c1ccn([C@@H]2O[C@H](CO)[C@@H](O)[C@H]2O)c(=O)[nH]1` [uridine], the tolerability in humans [1] is given as “well tolerated” and the tolerability in mammals [1] is given as “well tolerated”.

For `C[N+](C)(C)CCOP(=O)(O)OP(=O)([O-])OC[C@H]1O[C@@H](n2ccc(N)nc2=O)[C@H](O)[C@@H]1O` [CDP-choline, cytidine 5′-diphosphocholine], the tolerability in mammals [1] is given as “well tolerated”, the “conversion into circulating metabolites” value ([2]; administered either orally or intravenously) is given as “rapidly converted into the two major circulating metabolites, choline and cytidine” and the “CDP-choline and/or its metabolites absorbed” value ([2]; orally administered) is given as “more than 99%”. The excreted in feces ([2]; orally administered) was “less than 1%”, the excretion via lung ([2]; share of dose) was 12.9% and the excretion via urine ([2]; share of dose) was 2.4%. For the same molecule, the “rest of the dose metabolized and retained in tissues” value ([2]; share of dose) was 83.9%, the “marihuana use (cigarettes per week, daily diaries) compared to placebo” value [3] was “reduced” and the “number of marihuana cigarettes smoked” value (cocaine dependent person) was “decrease”. For the same molecule, the “sleep wake profile (accelerometer activity)” value (cocaine dependent person; continued throughout 8 weeks) was “more normalized diurnal pattern of sleeping at night and became more active during the day”, the reported overdoses ([4]; in vivo) was “no reported cases of overdoses” and the “toxicity symptoms on ingestion of large amounts” value ([4]; preclinical studies) was “common cholinergic symptoms (salivation, lacrimation, urination, defecation, and vomiting)”.
